The values that follow come from patent publication US9376442B2, “Methylpyrrolopyrimidinecarboxamides” (Takeda GmbH, priority 2009, dated 2016).

The test addresses T1, PDE5A1 (Homo sapiens, UniProt O76074).
T1 construct: from tissue; host or cells: human platelets from fresh donor blood (10,000 x g supernatant of sonicated lysate)
As to the kind of experiment: Inhibition of type 5 phosphodiesterase (PDE5) activity, modified SPA test with human platelet lysate. Format: biochemical. To be noted: 0.5 μM cGMP, read-out: PDE5A1 inhibitory values [measured as −log IC50 (mol/l)] (converted). The essentials:
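Enzyme source is lysate from human platelets (10,000 g supernatant). Compound preincubated 5 min at 37° C in Tris pH 7.4 containing 1 μM motapizone and 10 nM of a PDE2 inhibitor. Reaction started with 0.5 μM cGMP ([3H] tracer) and run 15 min; SPA read-out, IC50 by non-linear regression.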
For the compound `Cc1[nH]c2c(-c3ccc(F)cc3OCC3CC3)ncnc2c1C(=O)N[C@H]1CC[C@@H](NC(=O)CO)CC1` [Example F15, 4-[2-(cyclopropylmethoxy)-4-fluorophenyl]-N-[cis-4-(glycoloylamino)cyclohexyl]-6-methyl-5H-pyrrolo[3,2-d]pyrimidine-7-carboxamide], the IC50 was less than 1 nM.

For the compound `Cc1[nH]c2c(-c3ccc(F)cc3OCC3CC3)ncnc2c1C(=O)N[C@H]1CC[C@@H](NC(=O)[C@H](C)O)CC1` [Example F16, 4-[2-(Cyclopropylmethoxy)-4-fluorophenyl]-N-(cis-4-{[(2S)-2-hydroxypropanoyl]amino}cyclohexyl)-6-methyl-5H-pyrrolo[3,2-d]pyrimidine-7-carboxamide], the IC50 is less than 1 nM. For the compound `Cc1[nH]c2c(-c3ccc(F)cc3OCC3CC3)ncnc2c1C(=O)N[C@@H]1CCN(C(=O)CO)C1` [Example F17, 4-[2-(Cyclopropylmethoxy)-4-fluorophenyl]-N-[(3R)-1-(hydroxyacetyl)pyrrolidin-3-yl]-6-methyl-5H-pyrrolo[3,2-d]pyrimidine-7-carboxamide], the IC50 was 1 to 10 nM. The value for `Cc1[nH]c2c(-c3ccc(F)cc3OCC3CC3)ncnc2c1C(=O)N[C@@H]1CCN(C(=O)[C@H](C)O)C1` [Example F18, 4-[2-(cyclopropylmethoxy)-4-fluorophenyl]-N-{(3R)-1-[(2S)-2-hydroxypropanoyl]pyrrolidin-3-yl}-6-methyl-5H-pyrrolo[3,2-d]pyrimidine-7-carboxamide] was less than 1 nM. Take `Cc1[nH]c2c(-c3cc(F)ccc3OCC3CC3)ncnc2c1C(=O)N[C@@H]1CCN(C(=O)CO)C1` [Example F28, 4-[2-(Cyclopropylmethoxy)-5-fluorophenyl]-N-[(3R)-1-(hydroxyacetyl)pyrrolidin-3-yl]-6-methyl-5H-pyrrolo[3,2-d]pyrimidine-7-carboxamide]: the IC50 is 1 to 10 nM. The value for `Cc1[nH]c2c(-c3cc(F)ccc3OCC3CC3)ncnc2c1C(=O)N[C@@H]1CCN(C(=O)[C@H](C)O)C1` [Example F29, 4-[2-(Cyclopropylmethoxy)-5-fluorophenyl]-N-{(3R)-1-[(2S)-2-hydroxypropanoyl]pyrrolidin-3-yl}-6-methyl-5H-pyrrolo[3,2-d]pyrimidine-7-carboxamide] was 1 to 10 nM; that for `CCOc1ccc(F)cc1-c1ncnc2c(C(=O)NC3CCN(C(=O)CO)CC3)c(C)[nH]c12` [Example F32] was 1 to 10 nM; that for `CCOc1ccc(F)cc1-c1ncnc2c(C(=O)NC3CCN(C(=O)[C@H](C)O)CC3)c(C)[nH]c12` [Example F33, 4-(2-Ethoxy-5-fluorophenyl)-N-{1-[(2S)-2-hydroxypropanoyl]piperidin-4-yl}-6-methyl-5H-pyrrolo[3,2-d]pyrimidine-7-carboxamide] was 1 to 10 nM.

`COc1ccc(-c2ncnc3c(C(=O)NC4CCN(C(=O)CO)CC4)c(C)[nH]c23)c(OCC2CC2)c1` [Example F34, 4-[2-(Cyclopropylmethoxy)-4-methoxyphenyl]-N-(1-glycoloylpiperidin-4-yl)-6-methyl-5H-pyrrolo[3,2-d]pyrimidine-7-carboxamide]: the IC50 was less than 1 nM. The value for `COc1ccc(-c2ncnc3c(C(=O)NC4CCN(C(=O)[C@H](C)O)CC4)c(C)[nH]c23)c(OCC2CC2)c1` [Example F35, 4-[2-(Cyclopropylmethoxy)-4-methoxyphenyl]-N-{1-[(2S)-2-hydroxypropanoyl]piperidin-4-yl}-6-methyl-5H-pyrrolo[3,2-d]pyrimidine-7-carboxamide] was less than 1 nM; that for `COc1ccc(-c2ncnc3c(C(=O)N[C@H]4CC[C@H](NC(=O)[C@H](C)O)CC4)c(C)[nH]c23)c(OCC2CC2)c1` [Example F36, 4-[2-(Cyclopropylmethoxy)-4-methoxyphenyl]-N-(trans-4-{[(2S)-2-hydroxypropanoyl]amino}cyclohexyl)-6-methyl-5H-pyrrolo[3,2-d]pyrimidine-7-carboxamide] was less than 1 nM; that for `COc1ccc(-c2ncnc3c(C(=O)N[C@@H]4CCN(C(=O)CO)C4)c(C)[nH]c23)c(OCC2CC2)c1` [Example F37, 4-[2-(Cyclopropylmethoxy)-4-methoxyphenyl]-N-[(3R)-1-glycoloylpyrrolidin-3-yl]-6-methyl-5H-pyrrolo[3,2-d]pyrimidine-7-carboxamide] was less than 1 nM.

On to `COc1ccc(-c2ncnc3c(C(=O)N[C@@H]4CCN(C(=O)[C@H](C)O)C4)c(C)[nH]c23)c(OCC2CC2)c1` [Example F38, 4-[2-(Cyclopropylmethoxy)-4-methoxyphenyl]-N-{(3R)-1-[(2S)-2-hydroxypropanoyl]pyrrolidin-3-yl}-6-methyl-5H-pyrrolo[3,2-d]pyrimidine-7-carboxamide], for which the IC50 is less than 1 nM. The value for `COc1ccc(OCC2CC2)c(-c2ncnc3c(C(=O)N[C@@H]4CCN(C(=O)CO)C4)c(C)[nH]c23)c1` [Example F47, 4-[2-(cyclopropylmethoxy)-5-methoxyphenyl]-N-[(3R)-1-glycoloylpyrrolidin-3-yl]-6-methyl-5H-pyrrolo[3,2-d]pyrimidine-7-carboxamide] was less than 1 nM; that for `COc1ccc(OCC2CC2)c(-c2ncnc3c(C(=O)N[C@@H]4CCN(C(=O)[C@H](C)O)C4)c(C)[nH]c23)c1` [Example F48, 4-[2-(cyclopropylmethoxy)-5-methoxyphenyl]-N-{(3R)-1-[(2S)-2-hydroxypropanoyl]pyrrolidin-3-yl}-6-methyl-5H-pyrrolo[3,2-d]pyrimidine-7-carboxamide] was less than 1 nM; that for `CCOc1ccc(C(F)(F)F)cc1-c1ncnc2c(C(=O)NC3CCN(C(=O)CO)CC3)c(C)[nH]c12` [Example F63, 4-[2-Ethoxy-5-(trifluoromethyl)phenyl]-N-[1-(hydroxyacetyl)piperidin-4-yl]-6-methyl-5H-pyrrolo[3,2-d]pyrimidine-7-carboxamide] was less than 1 nM. As to `CCOc1ccc(C(F)(F)F)cc1-c1ncnc2c(C(=O)NC3CCN(C(=O)[C@H](C)O)CC3)c(C)[nH]c12` [Example F64, 4-[2-Ethoxy-5-(trifluoromethyl)phenyl]-N-{1-[(2S)-2-hydroxypropanoyl]piperidin-4-yl}-6-methyl-5H-pyrrolo[3,2-d]pyrimidine-7-carboxamide], the IC50 was less than 1 nM.

In the case of `COc1cc(-c2ncnc3c(C(=O)NC4CCN(C(=O)CO)CC4)c(C)[nH]c23)c(OCC2CC2)cc1F` [Example F65, 4-[2-(Cyclopropylmethoxy)-4-fluoro-5-methoxyphenyl]-N-(1-glycoloylpiperidin-4-yl)-6-methyl-5H-pyrrolo[3,2-d]pyrimidine-7-carboxamide], the IC50 was less than 1 nM.

Consider `COc1cc(-c2ncnc3c(C(=O)NC4CCN(C(=O)[C@H](C)O)CC4)c(C)[nH]c23)c(OCC2CC2)cc1F` [Example F66, 4-[2-(Cyclopropylmethoxy)-4-fluoro-5-methoxyphenyl]-N-{1-[(2S)-2-hydroxypropanoyl]piperidin-4-yl}-6-methyl-5H-pyrrolo[3,2-d]pyrimidine-7-carboxamide], for which the IC50 is less than 1 nM. Regarding `COc1cc(-c2ncnc3c(C(=O)N[C@H]4CC[C@H](NC(=O)CO)CC4)c(C)[nH]c23)c(OCC2CC2)cc1F` [Example F67, 4-[2-(Cyclopropylmethoxy)-4-fluoro-5-methoxyphenyl]-N-[trans-4-(glycoloylamino)cyclohexyl]-6-methyl-5H-pyrrolo[3,2-d]pyrimidine-7-carboxamide], the IC50 is less than 1 nM. The value for `COc1cc(-c2ncnc3c(C(=O)N[C@H]4CC[C@H](NC(=O)[C@H](C)O)CC4)c(C)[nH]c23)c(OCC2CC2)cc1F` [Example F68, 4-[2-(Cyclopropylmethoxy)-4-fluoro-5-methoxyphenyl]-N-(trans-4-{[(2S)-2-hydroxypropanoyl]amino}cyclohexyl)-6-methyl-5H-pyrrolo[3,2-d]pyrimidine-7-carboxamide] was less than 1 nM; that for `COc1cc(-c2ncnc3c(C(=O)N[C@H]4CC[C@@H](NC(=O)CO)CC4)c(C)[nH]c23)c(OCC2CC2)cc1F` [Example F69, 4-[2-(Cyclopropylmethoxy)-4-fluoro-5-methoxyphenyl]-N-[cis-4-(glycoloylamino)cyclohexyl]-6-methyl-5H-pyrrolo[3,2-d]pyrimidine-7-carboxamide] was less than 1 nM; that for `COc1cc(-c2ncnc3c(C(=O)N[C@H]4CC[C@@H](NC(=O)[C@H](C)O)CC4)c(C)[nH]c23)c(OCC2CC2)cc1F` [Example F70, 4-[2-(Cyclopropylmethoxy)-4-fluoro-5-methoxyphenyl]-N-(cis-4-{[(2S)-2-hydroxypropanoyl]amino}cyclohexyl)-6-methyl-5H-pyrrolo[3,2-d]pyrimidine-7-carboxamide] was less than 1 nM.

Take `Cc1cc(-c2ncnc3c(C(=O)NC4CCN(C(=O)[C@H](C)O)CC4)c(C)[nH]c23)c(OCC2CC2)cc1F` [Example F76, 4-[2-(Cyclopropylmethoxy)-4-fluoro-5-methylphenyl]-N-{1-[(2S)-2-hydroxypropanoyl]piperidin-4-yl}-6-methyl-5H-pyrrolo[3,2-d]pyrimidine-7-carboxamide]: the IC50 was less than 1 nM. In the case of `Cc1cc(-c2ncnc3c(C(=O)N[C@H]4CC[C@H](NC(=O)CO)CC4)c(C)[nH]c23)c(OCC2CC2)cc1F` [Example F77, 4-[2-(Cyclopropylmethoxy)-4-fluoro-5-methylphenyl]-N-{trans-4-[(hydroxyacetyl)amino]cyclohexyl}-6-methyl-5H-pyrrolo[3,2-d]pyrimidine-7-carboxamide], the IC50 was less than 1 nM.

Turning to `Cc1cc(-c2ncnc3c(C(=O)N[C@H]4CC[C@H](NC(=O)[C@H](C)O)CC4)c(C)[nH]c23)c(OCC2CC2)cc1F` [Example F78, 4-[2-(Cyclopropylmethoxy)-4-fluoro-5-methylphenyl]-N-(trans-4-{[(2S)-2-hydroxypropanoyl]amino}cyclohexyl)-6-methyl-5H-pyrrolo[3,2-d]pyrimidine-7-carboxamide], the IC50 was less than 1 nM.
